Measurements as given in article PMC3962490, “The Yeast Ess1 Prolyl Isomerase Controls Swi6 and Whi5 Nuclear Localization” (G3: Genes|Genomes|Genetics, 2014).
Like-named read-outs stand apart in the source and are kept apart here. Non-standard residues stand in square brackets, D forms with d. Residues, ends and D or L forms follow the SMILES beside them. *: point of attachment. Biotin = O=C1N[C@H]2[C@H](CS[C@H]2CCCCC(=O)*)N1; pS = N[C@@H](COP(=O)(O)O)C(=O)O

Target: T1, Recombinant S. cerevisiae Ess1 protein (Saccharomyces cerevisiae, UniProt P22696)
T1 construct: made in house; host or cells: Escherichia coli
T1 sequence (P22696 1-170): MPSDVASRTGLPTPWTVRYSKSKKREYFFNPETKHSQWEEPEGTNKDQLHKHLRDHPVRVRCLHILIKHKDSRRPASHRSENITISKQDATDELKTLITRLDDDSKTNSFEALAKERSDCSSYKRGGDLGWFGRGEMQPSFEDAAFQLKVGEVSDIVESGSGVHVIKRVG
Assay: Biolayer interferometry (BLI) kinetic assays of Ess1/peptide binding
Conditions: for Ess1 binding (in words) / Kd / kon: BLI; for Ess1 binding (in words): Ess1 3, 10, 30 μM, Figure 6, S1, S3; for kon: slope of kobs vs Ess1 concentration (Fig. S2), read-out: ka (association rate); for koff: read-out: kd (dissociation rate)
Description: Biolayer interferometry (BLI) was measured at 24° with an Octet RED system (FortéBio), essentially as described ([Shah and Duncan 2013]; [Shah et al. 2013]). Peptides were synthesized with N-terminal biotinylation (NEOBioLab). Phosphoserine residues were incorporated during synthesis and all peptides were purified to >95% purity by high-performance liquid chromatography (NEOBioLab). Each peptide included 4-6 N-terminal residues (typically [Gly-Gly-Ser]2) as a flexible linker to facilitate binding of Ess1 protein to the surface-immobilized peptide. BLI assays were carried out in 20 mM Tris-HCl pH 8.0, 1 mg/mL bovine serum albumin (Sigma-Aldrich; A6003-10G). Different peptides were immobilized on separate streptavidin-coated biosensors (FortéBio; cat. no. 18-5019). For each peptide sequence, sensors loaded with phosphorylated or unphosphorylated peptides were assayed in parallel, and the peptide concentrations (50−200 nM) and time of loading were controlled to achieve essentially the same level of peptide signal loaded, regardless of phosphorylation status (e.g., Figure S1). Recombinant S. cerevisiae Ess1 protein was purified from Escherichia coli as described ([Li et al. 2005]). Ess1 was incubated with peptide-loaded and control (no peptide) biosensors to measure kinetics of Ess1/peptide association, and sensors were moved to buffer alone to measure dissociation kinetics. To correct for low but significant nonspecific binding of Ess1 to sensors, data from a sensor without peptide within the same experiment were subtracted for each concentration of Ess1 used. For direct comparison of Ess1 binding to different peptides (Figure 6), signals were normalized for the levels of sensor-loaded peptide (0.2−0.5 nm) between sequential runs within the experiment. Data were analyzed using FortéBio Data Analysis software (Versions 6.4), and by linear and nonlinear regression in Prism (GraphPad, version 4).
To determine whether Ess1 interacts directly with Swi6 and Whi5, we conducted binding assays by using purified Ess1 protein and phospho-Ser-Pro or Ser-Pro peptides corresponding to the NLS motif of Swi6 and both NLS and NES motifs of Whi5. Binding was assayed using BLI ([Shah and Duncan 2013]). In brief, biotinylated peptides corresponding to the NLS or NES motifs were immobilized on streptavidin-coated sensors and binding of purified Ess1 protein was measured using BLI. Ess1 protein binding to immobilized peptide changes the optical interference at the sensor surface, measured as nm of spectral shift. Using this approach, we monitored the kinetics of binding and dissociation of Ess1. […] Binding was dependent on Ess1 concentration (3, 10, and 30 μM were used).
Figure 6 In vitro binding of Ess1 to Swi6 and Whi5 peptides. Kinetics for binding and dissociation of purified Ess1 protein with NLS and NES peptides were monitored using biolayer interferometry (BLI). Sensor-immobilized peptides: (A) carboxy-terminal domain (CTD) of RNA polymerase II (RNAPII), (B) Swi6-NLS, (C) Whi5-NLS, and (D) Whi5-NES. Data for phosphorylated peptides (P) are shown in black, unphosphorylated peptides (Un) in blue, and fitting curves are shown in red. Biotinylated peptides were loaded on individual streptavidin sensors, followed by a wash to remove unbound peptide. To measure Ess1 binding, sensors were transferred from buffer alone to buffer containing 3, 10, or 30 μM Ess1 protein (time zero) as indicated. After 300 sec, sensors were transferred to fresh buffer (without Ess1) to monitor Ess1 dissociation. Examples of raw data for these experiments, including the peptide-loading step and control sensors with no peptide are shown in Figure S1.
Table S4 Fitting Results for BLI Kinetic Assays
Peptide ka (M-1s-1) ±SD kd (s-1) ±SD %Rmax ±SD
Summary of results for fitting curves of BLI kinetic data (Fig. 6). The dissociation rate (kd) is an average (±standard deviation
(SD)) for fits at 3 concentrations of each peptide (3, 10, 30 µM). […]

[1] = estimated from binding isotherm F = E/(E + Kapp) with signal at 30 μM Ess1 relative to saturated signal of the cognate phosphorylated peptide, read-out: Kapp (estimated, unphosphorylated peptides)
[2] = 24°, 20 mM Tris-HCl pH 8.0, 1 mg/mL BSA, plateau binding responses vs Ess1 concentration (3, 10, 30 μM) fit to hyperbolic binding isotherm, read-out: KappEq (Equilibrium)

| Compound | Ess1 binding (in words) | Kd [1] [µM] | Kd [2] [µM] | kon [M⁻¹ s⁻¹] | koff [s⁻¹] |
| --- | --- | --- | --- | --- | --- |
| C[C@@H](O)[C@H](NC(=O)[C@@H]1CCCN1C(=O)[C@H](CO)NC(=O)[C@H](Cc1ccc(O)cc1)NC(=O)[C@H](CO)NC(=O)CNC(=O)CNC(=O)[C@H](CO)NC(=O)CNC(=O)CNC(=O)CCCC[C@@H]1SC[C@@H]2NC(=O)N[C@@H]21)C(=O)N[C@@H](CO)C(=O)N1CCC[C@H]1C(=O)N[C@@H](CO)C(=O)N[C@@H](Cc1ccc(O)cc1)C(=O)N[C@@H](CO)C(=O)O [CTD, reference compound] (Biotin-GGSGGSYSPTSPSYS-OH; N-terminus and C-terminus assumed) | very little binding | > 300 | – | – | – |
| C[C@@H](O)[C@H](NC(=O)[C@@H]1CCCN1C(=O)[C@H](CO)NC(=O)[C@H](Cc1ccc(O)cc1)NC(=O)[C@H](CO)NC(=O)CNC(=O)CNC(=O)[C@H](CO)NC(=O)CNC(=O)CN)C(=O)N[C@@H](COP(=O)(O)O)C(=O)N1CCC[C@H]1C(=O)N[C@@H](CO)C(=O)N[C@@H](Cc1ccc(O)cc1)C(=O)N[C@@H](CO)C(=O)O [CTD-P, reference compound] (H-GGSGGSYSPT[pS]PSYS-OH) | – | – | 1.65 ± 0.06 | 27100 | 0.0923 |
| CC(C)C[C@H](NC(=O)[C@H](CCC(=O)O)NC(=O)[C@H](CCCNC(=N)N)NC(=O)[C@H](CO)NC(=O)CNC(=O)CNC(=O)[C@H](CO)NC(=O)CNC(=O)CN)C(=O)NCC(=O)N[C@@H](COP(=O)(O)O)C(=O)N1CCC[C@H]1C(=O)N[C@@H](CC(C)C)C(=O)N[C@@H](CCCCN)C(=O)N[C@@H](CCCCN)C(=O)O [Swi6-NLS-P] (H-GGSGGSRELG[pS]PLKK-OH) | – | – | 10.1 ± 5.1 | 25100 | 0.254 |
| CC(C)C[C@H](NC(=O)[C@H](CCC(=O)O)NC(=O)[C@H](CCCNC(=N)N)NC(=O)[C@H](CO)NC(=O)CNC(=O)CNC(=O)[C@H](CO)NC(=O)CNC(=O)CNC(=O)CCCC[C@@H]1SC[C@@H]2NC(=O)N[C@@H]21)C(=O)NCC(=O)N[C@@H](CO)C(=O)N1CCC[C@H]1C(=O)N[C@@H](CC(C)C)C(=O)N[C@@H](CCCCN)C(=O)N[C@@H](CCCCN)C(=O)O [Swi6-NLS] (Biotin-GGSGGSRELGSPLKK-OH; N-terminus and C-terminus assumed) | – | > 100 | – | – | – |
| CC(C)C[C@H](NC(=O)[C@H](CCCNC(=N)N)NC(=O)[C@@H]1CCCN1C(=O)[C@H](COP(=O)(O)O)NC(=O)[C@@H]1CCCN1C(=O)[C@H](COP(=O)(O)O)NC(=O)[C@H](CC(C)C)NC(=O)[C@H](Cc1ccccc1)NC(=O)CNC(=O)CNC(=O)[C@H](CO)NC(=O)CNC(=O)CN)C(=O)N[C@@H](CCCNC(=N)N)C(=O)N[C@@H](COP(=O)(O)O)C(=O)N1CCC[C@H]1C(=O)N1CCC[C@H]1C(=O)N[C@H](C(=O)O)[C@@H](C)O [Whi5-NES-P] (H-GGSGGFL[pS]P[pS]PRLR[pS]PPT-OH) | – | – | 1.13 ± 0.18 | 17500 | 0.0503 |
| CC(C)C[C@H](NC(=O)[C@H](CCCNC(=N)N)NC(=O)[C@@H]1CCCN1C(=O)[C@H](CO)NC(=O)[C@@H]1CCCN1C(=O)[C@H](CO)NC(=O)[C@H](CC(C)C)NC(=O)[C@H](Cc1ccccc1)NC(=O)CNC(=O)CNC(=O)[C@H](CO)NC(=O)CNC(=O)CNC(=O)CCCC[C@@H]1SC[C@@H]2NC(=O)N[C@@H]21)C(=O)N[C@@H](CCCNC(=N)N)C(=O)N[C@@H](CO)C(=O)N1CCC[C@H]1C(=O)N1CCC[C@H]1C(=O)N[C@H](C(=O)O)[C@@H](C)O [Whi5-NES] (Biotin-GGSGGFLSPSPRLRSPPT-OH; N-terminus and C-terminus assumed) | – | > 1500 | – | – | – |
| CC[C@H](C)[C@H](NC(=O)CNC(=O)[C@@H]1CCCN1C(=O)[C@@H]1CCCN1C(=O)[C@H](COP(=O)(O)O)NC(=O)[C@@H]1CCCN1C(=O)[C@@H]1CCCN1C(=O)[C@H](COP(=O)(O)O)NC(=O)[C@@H]1CCCN1C(=O)[C@@H](NC(=O)CNC(=O)CNC(=O)[C@H](CO)NC(=O)CNC(=O)CN)[C@@H](C)O)C(=O)O [Whi5-NLS-P] (H-GGSGGTP[pS]PP[pS]PPGI-OH) | – | – | 0.48 ± 0.46 | 22800 | 0.0722 |
| CC[C@H](C)[C@H](NC(=O)CNC(=O)[C@@H]1CCCN1C(=O)[C@@H]1CCCN1C(=O)[C@H](CO)NC(=O)[C@@H]1CCCN1C(=O)[C@@H]1CCCN1C(=O)[C@H](CO)NC(=O)[C@@H]1CCCN1C(=O)[C@@H](NC(=O)CNC(=O)CNC(=O)[C@H](CO)NC(=O)CNC(=O)CNC(=O)CCCC[C@@H]1SC[C@@H]2NC(=O)N[C@@H]21)[C@@H](C)O)C(=O)O [Whi5-NLS] (Biotin-GGSGGTPSPPSPPGI-OH; N-terminus and C-terminus assumed) | – | > 25 | – | – | – |
| H3 aa1-21 (Ser10-P): "nonsubstrate" peptide (H3 aa1-21) in the phosphorylated form (Ser10-P) [reference compound] | did not bind | – | – | – | – |
| H3 aa1-21 unphosphorylated: "nonsubstrate" peptide (H3 aa1-21) in the unphosphorylated form [reference compound] | did not bind | – | – | – | – |
